Measurements taken from patent publication US11555036B2, “FGFR4 inhibitor, preparation method therefor and pharmaceutical use thereof” (Abbisko Therapeutics Co., Ltd., priority 2016, dated 2023).

How the values were obtained:
FGFR4 = FGFR4 (Homo sapiens, UniProt P22455); test: FGFR4 Caliper Assay (in vitro biochemical kinase analysis of FGFR4); settings: read-out: Enzymatic activity FGFR4 IC50
Procedure, shortened: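 Kinase reaction at 30° C for 40 min in 50 mM HEPES pH 7.5, 16 mM MgCl2, 1 mM DTT, 0.6% DMSO, stopped with EDTA. Phosphorylated and unphosphorylated fluorescent peptides separated by Caliper microfluidic mobility shift. IC50 by non-linear regression of percent inhibition.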

[1] = tested on: Huh7 hepatocellular carcinoma cells; test: FGFR4 cell proliferation experiment, Cell Titer Glo (CTG); assay type: cell-based; settings: Homo sapiens, Huh-7, 72 h, HuH-7 cells, 3 days; for IC50: concentration leading to absolute half growth inhibition; for EC50: concentration leading to half maximal growth inhibition
Procedure, shortened: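 Cells treated with 5-fold serial dilutions starting at 10 μM for 3 days at 37° C, 5% CO2. Proliferation/survival quantified as cellular ATP by CellTiter-Glo luminescence.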

Sequence of FGFR4 (P22455 22-802): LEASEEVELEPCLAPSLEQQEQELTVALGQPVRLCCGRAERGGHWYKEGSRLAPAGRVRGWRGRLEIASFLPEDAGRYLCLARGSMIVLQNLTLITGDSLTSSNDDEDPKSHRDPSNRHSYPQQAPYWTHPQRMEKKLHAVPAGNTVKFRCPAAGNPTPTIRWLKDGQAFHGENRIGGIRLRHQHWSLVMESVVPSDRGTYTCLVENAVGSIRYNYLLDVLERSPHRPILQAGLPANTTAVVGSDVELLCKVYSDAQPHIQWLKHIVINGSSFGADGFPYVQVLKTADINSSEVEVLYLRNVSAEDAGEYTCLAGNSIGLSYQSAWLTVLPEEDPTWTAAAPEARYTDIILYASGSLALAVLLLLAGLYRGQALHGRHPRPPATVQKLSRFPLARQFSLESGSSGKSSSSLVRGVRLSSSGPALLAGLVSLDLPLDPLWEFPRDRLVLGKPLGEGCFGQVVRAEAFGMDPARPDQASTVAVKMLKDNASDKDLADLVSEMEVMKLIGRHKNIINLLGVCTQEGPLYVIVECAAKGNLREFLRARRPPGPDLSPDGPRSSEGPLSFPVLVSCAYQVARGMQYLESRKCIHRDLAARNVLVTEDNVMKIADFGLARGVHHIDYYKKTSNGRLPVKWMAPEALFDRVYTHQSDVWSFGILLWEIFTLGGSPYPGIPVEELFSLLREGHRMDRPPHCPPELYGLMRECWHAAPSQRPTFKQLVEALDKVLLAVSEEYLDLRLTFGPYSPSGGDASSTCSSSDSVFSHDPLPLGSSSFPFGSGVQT

SMILES	IC50 (FGFR4)	IC50 [1]	EC50 [1]
C=CC(=O)Nc1cc(N2CCN(C)CC2)cc(C)c1Nc1cc2c(=O)n(C)c(-c3c(Cl)c(OC)cc(OC)c3Cl)nc2cn1 [Example 75, N-(2-((2-(2,6-dichloro-3,5-dimethoxyphenyl)-3-methyl-4-oxo-3,4-dihydropyrido [3,4-d]pyrimidin-6-yl)amino)-3-methyl-5-(4-methyl-piperazin-1-yl)phenyl) acrylamide]	247 nM	> 10000 nM	> 10000 nM
C=CC(=O)N[C@H]1COC[C@H]1Nc1ncc2cc(-c3c(Cl)c(OC)cc(OC)c3Cl)nc(NCCCN(C)C)c2n1 [Example 432, N-((3R,4S)-4-((6-(2,6-dichloro-3,5-di-methoxyphenyl)-8-((3-(dimethylami-no)propyl)amino)pyrido[3,4-d]pyrimi-din-2-yl)amino)tetrahydrofuran-3-yl) acrylamide]	106 nM	934 nM	396 nM
C=CC(=O)N[C@H]1CCOC[C@H]1Nc1ncc2cc(-c3c(Cl)c(OC)cc(OC)c3Cl)ccc2n1 [BLU-554]	18 nM	126 nM	27 nM
C=CC(=O)N[C@H]1COC[C@H]1Nc1ncc2cc(-c3c(Cl)c(OC)cc(OC)c3Cl)nc(N3CC(CO)(CO)C3)c2n1 [Example 759, N-((3R,4S)-4-((8-(3,3-bis(hydroxy-methyl)azetidin-1-yl)-6-(2,6-dichloro-3,5-dimethoxyphenyl)pyrido[3,4-d]py-rimidin-2-yl)amino)tetrahydrofuran-3-yl)acrylamide]	5.7 nM	61.1 nM	42.2 nM
C=CC(=O)N[C@H]1COC[C@H]1Nc1ncc2cc(-c3c(F)c(OC)cc(OC)c3F)nc(N3CC4CC(C3)O4)c2n1 [Example 769, N-((3R,4S)-4-((8-(6-oxa-3-azabicyclo[3.1.1]heptan-3-yl)-6-(2,6-difluoro-3,5-dimethoxy-phenyl)pyrido[3,4-d]pyrimidin-2-yl)amino)tetrahydrofuran-3-yl)acrylamide]	3.7 nM	10 nM	8.4 nM
C=CC(=O)N[C@H]1COC[C@H]1Nc1ncc2cc(-c3c(Cl)c(OC)cc(OC)c3Cl)nc(N3CC(C)(O)C3)c2n1 [Example 664, N-((3R,4S)-4-((6-(2,6-dichloro-3,5-dimethoxyphenyl)-8-(3-hydroxy-3-meth-ylazetidin-1-yl)pyrido[3,4-d]pyrimi-din-2-yl)amino)tetrahydrofuran-3-yl)acrylamide]	4.9 nM	4.9 nM	3.7 nM
C=CC(=O)N[C@H]1COC[C@H]1Nc1ncc2cc(-c3c(F)c(OC)cc(OC)c3F)nc(N3CC(C)(OC)C3)c2n1 [Example 666, N-((3R,4S)-4-((6-(2,6-difluoro-3,5-dimethoxyphenyl)-8-(3-methoxy-3-methylazetidin-1-yl)pyrido[3,4-d]pyri-midin-2-yl)amino)tetrahydrofuran-3-yl)acrylamide]	4.5 nM	4.6 nM	3.2 nM
C=CC(=O)N[C@H]1COC[C@H]1Nc1ncc2cc(-c3cccc(OC)c3F)nc(NC)c2n1 [Example 770, N-((3R,4S)-4-((6-(2-fluoro-3-meth-oxyphenyl)-8-(methylamino)pyrido[3,4-d]pyrimidin-2-yl)amino)tetrahydro-furan-3-yl)acrylamide]	2410 nM	> 10000 nM	> 10000 nM
C=CC(=O)N[C@H]1COC[C@H]1Nc1ncc2cc(-c3c(Cl)c(OC)cc(OC)c3Cl)nc(OCC3CC3)c2n1 [Example 498, N-((3R,4S)-4-((8-(cyclopropylmethoxy)-6-(2,6-dichloro-3,5-dimethoxyphen-nyl)pyrido[3,4-d]pyrimidin-2-yl)amino)tetrahydrofuran-3-yl)acrylamide]	8800 nM	> 10000 nM	2390 nM
C=CC(=O)N[C@H]1COC[C@H]1Nc1ncc2cc(-c3c(Cl)c(OC)cc(OC)c3Cl)nc(NC3CC3)c2n1 [Example 655, N-((3R,4S)-4-((8-(cyclopropylamino)-6-(2,6-dichloro-3,5-dimethoxyphen-yl)pyrido[3,4-d]pyrimidin-2-yl)amino)tetrahydrofuran-3-yl)acrylamide]	8 nM	68.4 nM	28 nM
C=CC(=O)N[C@H]1COC[C@H]1Nc1ncc2cc(-c3c(F)c(OC)cc(OC)c3F)nc(N3CC(F)(F)C3)c2n1 [Example 768, N-((3R,4S)-4-((6-(2,6-difluoro-3,5-dimethoxyphenyl)-8-(3,3-difluoro-azetidin-1-yl)pyrido[3,4-d]pyrimi-din-2-yl)amino)tetrahydro-furan-3-yl)acrylamide]	4 nM	12.5 nM	9.9 nM
C=CC(=O)N[C@H]1COC[C@H]1Nc1ncc2cc(-c3c(F)c(OC)cc(OC)c3F)nc(N3CC(C)(O)C3)c2n1 [Example 773, N-((3R,4S)-4-((6-(2,6-difluoro-3,5-dimethoxyphenyl)-8-(3-hydroxy-3-meth-ylazetidin-1-yl)pyrido[3,4-d]py-rimidin-2-yl)amino)tetrahydrofuran-3-yl)acrylamide]	1.8 nM	2.3 nM	2 nM
C=CC(=O)N[C@H]1COC[C@H]1Nc1ncc2cc(-c3c(Cl)c(OC)cc(OC)c3Cl)nc(N3CC4CC(C3)O4)c2n1 [Example 762, N-((3R,4S)-4-((8-(6-oxa-3-aza-bicyclo[3.1.1]heptan-3-yl)-6-(2,6-di-chloro-3,5-dimethoxyphenyl)pyrido[3,4-d]pyrimidin-2-yl)amino)tetrahydro-furan-3-yl)acrylamide]	5.2 nM	4.2 nM	3.2 nM
C=CC(=O)N[C@H]1COC[C@H]1Nc1ncc2cc(-c3c(Cl)c(OC)cc(OC)c3Cl)nc(NC[C@@H]3CCCO3)c2n1 [Example 438B, N-((3R,4S)-4-((6-(2,6-dichloro-3,5-di-methoxyphenyl)-8-((((S)-tetrahydro-furan-2-yl)methyl)amino)pyrido[3,4-d]pyrimidin-2-yl)amino)tetrahydro-furan-3-yl)acrylamide]	9.1 nM	35.1 nM	15.8 nM
C=CC(=O)N[C@H]1COC[C@H]1Nc1ncc2cc(-c3c(Cl)c(OC)cc(OC)c3Cl)nc(N3CC(C)(OC)C3)c2n1 [Example 665, N-((3R,4S)-4-((6-(2,6-dichloro-3,5-di-methoxyphenyl)-8-(3-methoxy-3-methylazetidin-1-yl)pyrido[3,4-d]py-rimidin-2-yl)amino)tetrahydrofuran-3-yl)acrylamide]	5.7 nM	11.8 nM	9.9 nM
C=CC(=O)Nc1cn(C)nc1Nc1ncc2cc(-c3c(Cl)c(OC)cc(OC)c3Cl)nc(NCC3CC3)c2n1 [Example 76, N-(3-((8-((cyclopropylmethyl)amino)-6-(2,6-dichloro-3,5-dimethoxyphenyl)pyrido[3,4-d]pyrimidin-2-yl)amino)-1-methyl-1H-pyrazol-4-yl)acrylamide]	24 nM	62.6 nM	23.8 nM
C=CC(=O)N[C@H]1COC[C@H]1Nc1ncc2cc(-c3c(Cl)c(OC)cc(OC)c3Cl)nc(NCCS(=O)(=O)CC)c2n1 [Example 429, N-((3R,4S)-4-((6-(2,6-dichloro-3,5-di-methoxyphenyl)-8-((2-(ethylsulfonyl)ethyl)amino)pyrido[3,4-d]pyrimidin-2-yl)amino)tetrahydrofuran-3-yl)acryl-amide]	22.4 nM	184 nM	63.2 nM
